Reference: patent US11491120B2, “Pharmacological prophylactics against stress-induced affective disorders in females” (The Trustees of Columbia University in the City of New York, priority 2017, dated 2022)
Entries after “also recorded” stand apart in the source; their conditions may differ.

How the values were obtained:
female 129S6/SvEv mice [1] = assay: Forced swim test (FST), immobility time, after stress; details: for p, Immobility Time Average (min 3-6) / * (significance), Immobility Time (min 1) / p, Immobility Time (min 1) / p, Immobility Time (min 1-6) / p, Immobility Time (min 3) / p, Immobility Time (min 4) / p, Immobility Time (min 5) / p, Immobility Time (min 6): Forced Swim Test Day 1, 1 week prophylactic drug
female 129S6/SvEv mice [2] = assay: Contextual fear conditioning (CFC), 3-shock, freezing in training and context re-exposure; details: for Freezing during 3-shock CFC training vs saline: 1 week before CFC
[3] = Dunnett test Sal vs. drug (2.5)
[4] = single injection 1 week before stressor, female mice
[5] = Contextual Fear Conditioning Re-exposure, Dunnett test Sal vs. drug (0.025), 1 week prophylactic drug
[6] = Contextual Fear Conditioning Re-exposure, Dunnett test Sal vs. drug (0.075), 1 week prophylactic drug
[7] = Contextual Fear Conditioning Re-exposure, Dunnett test Sal vs. drug (0.1), 1 week prophylactic drug
[8] = Contextual Fear Conditioning Re-exposure, Dunnett test Sal vs. drug (0.3), 1 week prophylactic drug
[9] = Contextual Fear Conditioning Re-exposure, Dunnett test Sal vs. drug (2.5), 1 week prophylactic drug
[10] = Contextual Fear Conditioning Re-exposure, Dunnett test Sal vs. drug (10), 1 week prophylactic drug
[11] = Contextual Fear Conditioning Training, Dunnett test Sal vs. drug (0.025), 1 week prophylactic drug
[12] = Contextual Fear Conditioning Training, Dunnett test Sal vs. drug (0.075), 1 week prophylactic drug
[13] = Contextual Fear Conditioning Training, Dunnett test Sal vs. drug (0.1), 1 week prophylactic drug
[14] = Contextual Fear Conditioning Training, Dunnett test Sal vs. drug (0.3), 1 week prophylactic drug
[15] = Contextual Fear Conditioning Training, Dunnett test Sal vs. drug (2.5), 1 week prophylactic drug
[16] = Contextual Fear Conditioning Training, Dunnett test Sal vs. drug (10), 1 week prophylactic drug

N[C@]1(c2ccccc2Cl)CCC[C@H](O)C1=O [(2S,6S)-HNK]
p, Immobility Time Average (min 3-6) (female 129S6/SvEv mice [1]; Dunnett test Sal vs. drug (0.3)): 0.5532 | * (significance), Immobility Time (min 1) (female 129S6/SvEv mice [1]; [3]): * (* p<0.05) | p, Immobility Time (min 1) (female 129S6/SvEv mice [1]; [3]): 0.0147 | p, Immobility Time (min 1-6) (female 129S6/SvEv mice [1]; [3]): 0.9878 | p, Immobility Time (min 3) (female 129S6/SvEv mice [1]; [3]): 0.9995 | p, Immobility Time (min 4) (female 129S6/SvEv mice [1]; [3]): 0.9958 | p, Immobility Time (min 5) (female 129S6/SvEv mice [1]; [3]): 0.9958 | p, Immobility Time (min 6) (female 129S6/SvEv mice [1]; [3]): 0.9992 | p, Immobility Time Average (min 3-6) (female 129S6/SvEv mice [1]; [3]): 0.9990 | * (significance), Immobility Time (min 1) (female 129S6/SvEv mice [1]; Dunnett test Sal vs. drug (10)): ** (** p<0.01) | p, Immobility Time (min 1) (female 129S6/SvEv mice [1]; Dunnett test Sal vs. drug (10)): 0.0064 | p, Immobility Time (min 1-6) (female 129S6/SvEv mice [1]; Dunnett test Sal vs. drug (10)): >0.9999 | p, Immobility Time (min 3) (female 129S6/SvEv mice [1]; Dunnett test Sal vs. drug (10)): 0.9307 | p, Immobility Time (min 4) (female 129S6/SvEv mice [1]; Dunnett test Sal vs. drug (10)): 0.9497 | p, Immobility Time (min 5) (female 129S6/SvEv mice [1]; Dunnett test Sal vs. drug (10)): 0.9952 | p, Immobility Time (min 6) (female 129S6/SvEv mice [1]; Dunnett test Sal vs. drug (10)): 0.5393 | p, Immobility Time Average (min 3-6) (female 129S6/SvEv mice [1]; Dunnett test Sal vs. drug (10)): 0.8035 | Immobility on FST Day 2 vs saline (female 129S6/SvEv mice [1]; all doses of (2S,6S)-HNK and all other dose groups, 1 week before CFC, female mice): failed to reduce average immobility | Prophylactic efficacy against stress-induced depressive-like behavior (female 129S6/SvEv mice [1]; [4]): but not (2S,6S)-HNK | p, Sal vs. drug, Dunnett test: Freezing (Average), Contextual Fear Conditioning Re-exposure (female 129S6/SvEv mice [2]; 0.025 mg/kg, 1 week prophylactic drug): 0.9898 | p, Sal vs. drug, Dunnett test: Freezing (Average), Contextual Fear Conditioning Re-exposure (female 129S6/SvEv mice [2]; 0.075 mg/kg, 1 week prophylactic drug): 0.4829 | Freezing during 3-shock CFC training vs saline (female 129S6/SvEv mice [2]; 0.1 mg/kg, female mice): froze significantly less | p, Sal vs. drug, Dunnett test: Freezing (Average), Contextual Fear Conditioning Re-exposure (female 129S6/SvEv mice [2]; 0.1 mg/kg, 1 week prophylactic drug): 0.9999 | Freezing during 3-shock CFC training vs saline (female 129S6/SvEv mice [2]; 0.3 mg/kg, female mice): froze significantly more | p, Sal vs. drug, Dunnett test: Freezing (Average), Contextual Fear Conditioning Re-exposure (female 129S6/SvEv mice [2]; 0.3 mg/kg, 1 week prophylactic drug): 0.1973 | p, Sal vs. drug, Dunnett test: Freezing (Average), Contextual Fear Conditioning Re-exposure (female 129S6/SvEv mice [2]; 2.5 mg/kg, 1 week prophylactic drug): 0.9996 | p, Sal vs. drug, Dunnett test: Freezing (Average), Contextual Fear Conditioning Re-exposure (female 129S6/SvEv mice [2]; 10 mg/kg, 1 week prophylactic drug): 0.9896 | p, Freezing (min 1-5) (female 129S6/SvEv mice [2]; [5]): 0.9898 | p, Freezing (min 2) (female 129S6/SvEv mice [2]; [5]): >0.9999 | p, Freezing (min 3) (female 129S6/SvEv mice [2]; [5]): 0.7775 | p, Freezing (min 4) (female 129S6/SvEv mice [2]; [5]): 0.9990 | p, Freezing (min 5) (female 129S6/SvEv mice [2]; [5]): 0.9996 | p, Freezing (min 1-5) (female 129S6/SvEv mice [2]; [6]): 0.4829 | p, Freezing (min 2) (female 129S6/SvEv mice [2]; [6]): 0.9135 | p, Freezing (min 3) (female 129S6/SvEv mice [2]; [6]): 0.3091 | p, Freezing (min 4) (female 129S6/SvEv mice [2]; [6]): 0.5808 | p, Freezing (min 5) (female 129S6/SvEv mice [2]; [6]): 0.2703 | p, Freezing (min 1-5) (female 129S6/SvEv mice [2]; [7]): 0.9999 | p, Freezing (min 2) (female 129S6/SvEv mice [2]; [7]): 0.9997 | p, Freezing (min 3) (female 129S6/SvEv mice [2]; [7]): 0.9998 | p, Freezing (min 4) (female 129S6/SvEv mice [2]; [7]): 0.9889 | p, Freezing (min 5) (female 129S6/SvEv mice [2]; [7]): >0.9999 | p, Freezing (min 1-5) (female 129S6/SvEv mice [2]; [8]): 0.1973 | p, Freezing (min 2) (female 129S6/SvEv mice [2]; [8]): 0.2064 | p, Freezing (min 3) (female 129S6/SvEv mice [2]; [8]): 0.2280 | p, Freezing (min 4) (female 129S6/SvEv mice [2]; [8]): 0.8082 | p, Freezing (min 5) (female 129S6/SvEv mice [2]; [8]): 0.3262 | p, Freezing (min 1-5) (female 129S6/SvEv mice [2]; [9]): 0.9996 | p, Freezing (min 2) (female 129S6/SvEv mice [2]; [9]): 0.9991 | p, Freezing (min 3) (female 129S6/SvEv mice [2]; [9]): 0.9908 | p, Freezing (min 4) (female 129S6/SvEv mice [2]; [9]): 0.9997 | p, Freezing (min 5) (female 129S6/SvEv mice [2]; [9]): >0.9999 | p, Freezing (min 1-5) (female 129S6/SvEv mice [2]; [10]): 0.9896 | p, Freezing (min 2) (female 129S6/SvEv mice [2]; [10]): 0.5764 | p, Freezing (min 3) (female 129S6/SvEv mice [2]; [10]): 0.9993 | p, Freezing (min 4) (female 129S6/SvEv mice [2]; [10]): 0.9991 | p, Freezing (min 5) (female 129S6/SvEv mice [2]; [10]): >0.9999 | p, Freezing (min 1-5) (female 129S6/SvEv mice [2]; [11]): 0.9955 | p, Freezing (min 4) (female 129S6/SvEv mice [2]; [11]): 0.7894 | p, Freezing (min 5) (female 129S6/SvEv mice [2]; [11]): >0.9999 | p, Freezing (min 1-5) (female 129S6/SvEv mice [2]; [12]): 0.9996 | p, Freezing (min 4) (female 129S6/SvEv mice [2]; [12]): 0.9991 | p, Freezing (min 5) (female 129S6/SvEv mice [2]; [12]): >0.9999 | p, Freezing (min 1-5) (female 129S6/SvEv mice [2]; [13]): 0.2466 | p, Freezing (min 4) (female 129S6/SvEv mice [2]; [13]): 0.3064 | p, Freezing (min 5) (female 129S6/SvEv mice [2]; [13]): 0.5117 | * (significance), Freezing (min 1-5) (female 129S6/SvEv mice [2]; [14]): ** (** p<0.01) | p, Freezing (min 1-5) (female 129S6/SvEv mice [2]; [14]): 0.0085 | p, Freezing (min 4) (female 129S6/SvEv mice [2]; [14]): 0.0675 | p, Freezing (min 5) (female 129S6/SvEv mice [2]; [14]): 0.0731 | p, Freezing (min 1-5) (female 129S6/SvEv mice [2]; [15]): 0.6733 | p, Freezing (min 4) (female 129S6/SvEv mice [2]; [15]): 0.9438 | p, Freezing (min 5) (female 129S6/SvEv mice [2]; [15]): 0.7492 | p, Freezing (min 1-5) (female 129S6/SvEv mice [2]; [16]): 0.5049 | p, Freezing (min 4) (female 129S6/SvEv mice [2]; [16]): 0.7737 | p, Freezing (min 5) (female 129S6/SvEv mice [2]; [16]): 0.5845 | Freezing during re-exposure to the CFC training context vs saline (female 129S6/SvEv mice [2]; single i.p. injection 1 week before 3-shock CFC, all doses, female mice): do not significantly alter freezing; also recorded: did not alter overall freezing | Attenuation of learned fear (female 129S6/SvEv mice [2]; [4]): do not attenuate learned fear
